Source: patent publication US10905120B2, “ABA receptor agonists that modulate transpiration” (The Regents of the University of California, priority 2016, dated 2021)
Values after ≈ are worked out from the molar mass of the structure shown. Where two headings read alike, the source gives them in different places.

Legend:
[1] = tested on: Arabidopsis thaliana seeds; experiment: Germination assay; assay type: in vivo; details: Minimal Inhibitory Concentration, 3 d in darkness after 4 d stratification
Experimental: Germination experiments were performed with Arabidopsis thaliana seeds of wildtype Col0, Ler, or mutant backgrounds.
Seeds were sterilized by 30 sec incubation in 70% ethanol solution followed by a 5 min […] (while vigorously shaking) in a bleach-Tween solution. Afterwards, the sterilizing solutions were removed, and five washes were performed with sterile distilled water. To enhance complete removal of the solutions between the different steps, short centrifuge spins were performed. Finally, the now surface-sterilized seeds were re-suspended in an aseptic 0.1% agar solution to simplify distribution over multiwall plates. One drop of the solution contained on average 20-30 seeds.
In the multiwell plates, seeds were plated onto 0.7% agar Murashige amd Skoog (MS) plant growth medium containing one-half MS salts and 0.5% sucrose containing different concentrations of ABA, quinabactin, or the compound of interest. After 4 d of stratification at 4° C., the plates were transferred to a growth chamber in darkness and allowed to germinate for 3 d before germination was evaluated. The results are shown above in Table 1 and FIGS. 3A and 3B.

PYR1 = target: T1, PYR1 (Arabidopsis thaliana, UniProt O49686); experiment: PP2C inhibition assay, recombinant PYR1 receptor; assay type: biochemical
T1 sequence (O49686 1-191): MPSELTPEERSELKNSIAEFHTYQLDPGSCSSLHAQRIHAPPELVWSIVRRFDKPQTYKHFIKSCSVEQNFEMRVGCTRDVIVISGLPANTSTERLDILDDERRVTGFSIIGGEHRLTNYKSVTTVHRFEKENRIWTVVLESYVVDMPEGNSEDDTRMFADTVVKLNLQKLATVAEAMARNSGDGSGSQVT
T1 sequence (Q9CAJ0 23-511 partner): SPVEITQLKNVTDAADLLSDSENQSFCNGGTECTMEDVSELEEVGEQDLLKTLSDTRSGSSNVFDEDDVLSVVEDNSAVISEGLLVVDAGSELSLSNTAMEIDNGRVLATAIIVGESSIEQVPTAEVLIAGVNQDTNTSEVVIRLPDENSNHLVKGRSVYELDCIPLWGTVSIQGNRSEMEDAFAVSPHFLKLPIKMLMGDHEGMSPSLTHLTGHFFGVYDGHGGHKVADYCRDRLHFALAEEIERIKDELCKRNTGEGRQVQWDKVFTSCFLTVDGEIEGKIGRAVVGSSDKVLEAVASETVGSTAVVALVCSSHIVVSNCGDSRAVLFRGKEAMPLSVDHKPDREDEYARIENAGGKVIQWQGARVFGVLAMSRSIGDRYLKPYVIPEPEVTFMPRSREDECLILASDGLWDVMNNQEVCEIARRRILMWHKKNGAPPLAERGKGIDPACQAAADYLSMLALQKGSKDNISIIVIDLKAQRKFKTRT
Experimental: (§1) Reactions were started by adding 40 μL of a reaction solution containing 25 mM 4-nitrophenyl phosphate in assay buffer, after which absorbance measurements were immediately collected using a 405 nm on Wallac plate reader. Reactions contained 100 nM PP2C and 200 nM PYR/PYL proteins. […] The dose response data was fitted to a log (inhibitor) vs response-(variable slope) model using non-linear regression to infer the IC50 values using Graph Pad Prism 6.0.

PYL2 = target: T2, PYL2 (Arabidopsis thaliana, UniProt O80992); experiment: PP2C inhibition assay, recombinant PYL2 receptor; assay type: biochemical
T2 sequence (O80992 1-190): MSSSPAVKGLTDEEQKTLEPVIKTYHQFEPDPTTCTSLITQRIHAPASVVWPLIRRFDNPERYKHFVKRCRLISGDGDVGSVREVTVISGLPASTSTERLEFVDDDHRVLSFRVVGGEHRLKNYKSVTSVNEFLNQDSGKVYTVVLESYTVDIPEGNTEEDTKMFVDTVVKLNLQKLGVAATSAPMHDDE
T2 sequence (Q9CAJ0 23-511 partner): T1 sequence (Q9CAJ0 23-511 partner)
Experimental: as §1

adult Arabidopsis plants = experiment: Thermal imaging assay of sprayed adult plants; assay type: in vivo; details: sprayed at 50 uM dose on adult Arabidopsis plants; compared with quinabactin and ABA at the same dose
From the text: Molecules that elicit ABA-like effects in vivo typically close guard cells, which arrests transpirational water loss, resulting in less efficient cooling of the leaf surface and a concomitant increase in leaf surface temperature. Infrared thermography has recently emerged as an attractive, noninvasive technique to evaluate plant leaf surface temperature.
For the adult plants used for thermal imaging, seeds were sterilized as described in Example 3. Afterwards, the seeds were spread onto 0.7% agar MS plant growth medium containing one-half MS salts and 0.5% sucrose. After 4 d of stratification at 4° C., these plates were transferred to a growth chamber in light and allowed to germinate and grow for 7 d. The seedlings then were transferred into soil, and plants of 3-4 wk old were used for thermal imaging. Before thermal imaging, topical spraying of the plants was performed with a water solution containing an active agent (50 μM ABA, quinabactin, or a test compound of interest), 0.5% DMSO, and 0.02% polyalkyleneoxide modified heptamethyltrisiloxane surfactant (Silwet-77). Thermal images were collected just before spraying, 24 h after treatment, and 48 h after treatment. Treated plants were compared to mock-treated plants that had been sprayed with water containing 0.5% DMSO and 0.02% Silwet-77.
Thermal images were collected at 16 h after treatment. Thermal images were quantified using the Flir tools software version 5.2.15161.1001 by measuring the average leaf temperature of 5-6 leaves per plant. Average temperatures were calculated for 10 replicate plants (in 5 pots) per treatment. Statistical comparisons between the treated and the mock-treated plants were performed using pairwise t-tests. In the graphs represented in FIG. 1B, error bars represent the standard error of mean, asterisks symbols indicate statistical significance, and * indicates p≤0.05, ** for p≤0.01, *** for p≤0.001.

[2] = recombinant receptor 200 nM, PP2C 100 nM, 4-nitrophenyl phosphate substrate, absorbance 405 nm, read-out: IC50 PYR1
[3] = recombinant receptor 200 nM, PP2C 100 nM, 4-nitrophenyl phosphate substrate, absorbance 405 nm, read-out: IC50 PYL2

IC50 (PYR1; [2]) | IC50 (PYL2; [3]) | SMILES | MIC (μM) Germination [1] | IC50 (PYR1) | IC50 (PYL2) | increase of leaf surface temperature (adult Arabidopsis plants)
0.246 ± 0.06 µM | 20 ± 1.08 µM | Cc1ccc(CS(=O)(=O)Nc2ccc(C#N)c(C)c2)cc1 [Ligand Q1, N-(4-Cyano-3-methylphenyl)-1-(4-methylphenyl)methanesulfonamide] | 10 µM (≈ 3 µg/mL) | – | – | –
0.098 ± 0.007 µM | 2.58 ± 0.222 µM | Cc1ccc(CS(=O)(=O)Nc2cc(C)c(C#N)c(C)c2)cc1 [Ligand Q15, N-(4-Cyano-3,5-dimethylphenyl)-1-(4-methylphenyl)methanesulfonamide] | 10 µM (≈ 3.14 µg/mL) | – | – | –
– | – | CCCN1C(=O)CCc2cc(NS(=O)(=O)Cc3ccc(C)cc3)ccc21 [QB, Quinabactin, reference compound] | 3 µM (≈ 1.12 µg/mL) | – | – | –
– | – | N#Cc1ccc(NS(=O)(=O)Cc2ccc([N+](=O)[O-])cc2)cc1C(F)(F)F [Ligand Q5, N-[4-Cyano-3-(trifluoromethyl)phenyl]-1-(4-nitrophenyl)methanesulfonamide] | >25 µM | 8.24 ± 0.52 µM | > 50 µM | –
0.22 ± 0.018 µM | 1.61 ± 0.023 µM | CCCc1cc(NS(=O)(=O)Cc2ccc(C)cc2)cc(C)c1C#N [Ligand Q32, N-(4-Cyano-3-methyl-5-propylphenyl)-1-(4-methylphenyl)methanesulfonamide] | 10 µM (≈ 3.42 µg/mL) | – | – | to a lesser extent
0.21 ± 0.036 µM | 1.66 ± 0.046 µM | Cc1ccc(CS(=O)(=O)Nc2cc(C)c(C#N)c(C3CC3)c2)cc1 [Ligand Q28, N-(4-Cyano-3-cyclopropyl-5-methylphenyl)-1-(4-methylphenyl) methanesulfonamide] | 10 µM (≈ 3.4 µg/mL) | – | – | –
1.1 ± 0.183 µM | > 50 µM | Cc1cc(NS(=O)(=O)Cc2ccc(C(F)(F)F)cc2)ccc1C#N [Ligand Q13, N-(4-Cyano-3-methylphenyl)-1-[4-(trifluoromethyl)phenyl]methanesulfonamide] | >25 µM | – | – | –
– | – | Cc1ccc(CS(=O)(=O)Nc2ccc(C#N)c(Cl)c2)cc1 [Ligand Q2, N-(3-Chloro-4-cyanophenyl)-1-(4-methylphenyl)methanesulfonamide] | 25 µM (≈ 8.02 µg/mL) | 3.91 ± 0.122 µM | > 50 µM | –
0.203 ± 0.025 µM | 20.1 ± 1.46 µM | Cc1cc(NS(=O)(=O)Cc2ccc(C3CC3)cc2)cc(C)c1C#N [Ligand Q23, N-(4-Cyano-3,5-dimethylphenyl)-1-(4-cyclopropylphenyl)methanesulfonamide] | 10 µM (≈ 3.4 µg/mL) | – | – | –
– | – | N#Cc1ccc(NS(=O)(=O)Cc2ccc(C(F)(F)F)cc2)cc1C(F)(F)F [Ligand Q9, N-[4-Cyano-3-(trifluoromethyl)phenyl]-1-[4-(trifluoromethyl)phenyl]methanesulfonamide] | 10 µM (≈ 4.08 µg/mL) | 3.4 ± 0.27 µM | > 50 µM | –
– | – | N#Cc1ccc(NS(=O)(=O)Cc2ccc(Br)cc2)cc1C(F)(F)F [Ligand Q7, 1-(4-Bromophenyl)-N-[4-cyano-3-(trifluoromethyl)phenyl]methanesulfonamide] | 10 µM (≈ 4.19 µg/mL) | 0.326 ± 0.0077 µM | 31.4 ± 3.4 µM | –
0.13 ± 0.009 µM | 11.8 ± 1.12 µM | COc1cc(NS(=O)(=O)Cc2ccc(C)cc2)ccc1C#N [Ligand Q20, N-(4-Cyano-3-methoxyphenyl)-1-(4-methylphenyl)methanesulfonamide] | 5 µM (≈ 1.58 µg/mL) | – | – | –
> 50 µM | > 50 µM | CCCN(C(C)=O)c1ccc(NS(=O)(=O)Cc2ccc(C)cc2)cc1C(F)(F)F [Ligand Q11, N-[4-{[(4-Methylbenzyl)sulfonyl]amino}-2-(trifluoromethyl)phenyl]-N-propylacetamide] | >25 µM | – | – | –
0.197 ± 0.009 µM | 5.63 ± 0.8 µM | Cc1cc(NS(=O)(=O)Cc2ccc(Cl)cc2)cc(C)c1C#N [Ligand Q22, 1-(4-Chlorophenyl)-N-(4-cyano-3,5-dimethylphenyl)methanesulfonamide] | 10 µM (≈ 3.35 µg/mL) | – | – | –
– | – | Cc1cc(NS(=O)(=O)Cc2ccc(Br)cc2F)cc(C)c1C#N [Ligand Q24, 1-(4-Bromo-2-fluorophenyl)-N-(4-cyano-3,5-dimethylphenyl)methanesulfonamide] | 10 µM (≈ 3.97 µg/mL) | 0.188 ± 0.019 µM | 11.9 ± 1.47 µM | –
– | – | N#Cc1ccc(NS(=O)(=O)Cc2ccc(N)cc2)cc1C(F)(F)F [Ligand Q6, 1-(4-Aminophenyl)-N-[4-cyano-3-(trifluoromethyl)phenyl]methanesulfonamide] | >25 µM | 3.4 ± 0.2 µM | > 50 µM | –
– | – | Cc1ccc(CS(=O)(=O)Nc2ccc(C#N)c(C(F)(F)F)c2)cc1 [Ligand Q4, N-(4-Cyano-3-(trifluoromethyl)-phenyl)-1-(4-methylphenyl)methanesulfonamide] | 10 µM (≈ 3.54 µg/mL) | 0.258 ± 0.019 µM | 9.58 ± 0.102 µM | –
> 50 µM | > 50 µM | CC(=O)Nc1ccc(NS(=O)(=O)Cc2ccc(C)cc2)cc1C(F)(F)F [Ligand Q10, N-[4-{[(4-Methylbenzyl)sulfonyl]amino}-2-(trifluoromethyl)phenyl]acetamide] | >25 µM | – | – | –

SMILES | IC50 (PYR1; [2]) | IC50 (PYL2; [3]) | MIC (μM) Germination [1] | IC50 (PYR1) | IC50 (PYL2) | increase of leaf surface temperature (adult Arabidopsis plants)
Cc1ccc(CS(=O)(=O)Nc2ccc(C#N)c(Br)c2)cc1 [Ligand Q3, N-(3-Bromo-4-cyanophenyl)-1-(4-methylphenyl)methanesulfonamide] | 2.5 ± 0.151 µM | > 50 µM | >25 µM | – | – | –
Cc1ccc(CS(=O)(=O)Nc2cc(C(F)(F)F)c(C#N)c(C(F)(F)F)c2)cc1 [Ligand Q14, N-(4-Cyano-3,5-(bistrifluoromethyl)phenyl)-1-(4-methylphenyl) methanesulfonamide] | > 50 µM | > 50 µM | >25 µM | – | – | –
Cc1ccc(CS(=O)(=O)Nc2cc(C(F)(F)F)c(C#N)cc2[N+](=O)[O-])cc1 [Ligand Q17, N-[4-Cyano-2-nitro-5-(trifluoromethyl)phenyl]-1-(4-methylphenyl) methanesulfonamide] | > 50 µM | > 50 µM | >25 µM | – | – | –
Cc1ccc(CS(=O)(=O)Nc2cc(C(F)(F)F)c(C#N)cc2N)cc1 [Ligand Q18, N-[2-Amino-4-cyano-5-(trifluoromethyl)phenyl]-1-(4-methylphenyl) methanesulfonamide] | > 50 µM | > 50 µM | >25 µM | – | – | –
Cc1ccc(CS(=O)(=O)Nc2cc(C)c(C#N)c(Br)c2)cc1 [Ligand Q25, N-(3-Bromo-4-cyano-5-methylphenyl)-1-(4-methylphenyl)methanesulfonamide] | 0.355 ± 0.034 µM | 16.7 ± 0.788 µM | 25 µM (≈ 9.48 µg/mL) | – | – | –
